Experimental findings from paper PMC10458236, “QSAR and Chemical Read-Across Analysis of 370 Potential MGMT Inactivators to Identify the Structural Features Influencing Inactivation Potency” (Pharmaceutics, 2023) are described below.

One may read the IC50 as the concentration that gives 50% inhibition.

For the test, the target named is T1, human recombinant MGMT (O^6-methylguanine-DNA methyltransferase) (Homo sapiens, UniProt P16455).
T1 construct: recombinant
T1 sequence (P16455 1-207): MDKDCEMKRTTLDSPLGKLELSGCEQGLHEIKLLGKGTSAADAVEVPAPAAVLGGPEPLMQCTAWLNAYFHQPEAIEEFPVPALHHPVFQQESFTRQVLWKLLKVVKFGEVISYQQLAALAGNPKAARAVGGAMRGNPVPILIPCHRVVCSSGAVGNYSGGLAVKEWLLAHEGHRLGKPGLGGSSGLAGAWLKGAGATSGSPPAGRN
The experiment in a line: [3H]-methylated-DNA MGMT inactivation assay. The test is classed as biochemical.

For the compound `N#Cc1csc(COc2nc(N)nc3[nH]cnc23)c1` [compound 90], the concentration for half-maximal inhibition (IC50) was 3.02 nM. As for `CCCOC(=O)n1cc2c(OCc3cc(Br)cs3)nc(N)nc2n1` [compound 411], the IC50 is 2.82 nM.
